The supplement of paper PMC10307832

Legend:
Test in all cases: relative viability (nuclei count vs DMSO), 5 days (fraction); higher = more cells survive
[1] = compound: CC1=C(C(=O)N2C=CSC2=N1)CCN3CCC(=C(C4=CC=CC=C4)C5=CC=C(C=C5)F)CC3 + Nc1nc2[nH]cc(CCc3ccc(C(=O)N[C@@H](CCC(=O)O)C(=O)O)cc3)c2c(=O)[nH]1 [Pemetrexed] (partner 0.2 µM)
Outline: (§1)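 Values are medians from duplicate plates. Each reflects relative viability, defined as the nuclei count of treated wells over that of vehicle wells. Lung cancer cell lines in 1536-well plates were pin-tool dosed one day after seeding with one drug alone or with a fixed anchor-drug dose plus five library-drug doses (not always all listed) in √10 steps, then fixed, stained and imaged at 4× after 5 days.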

[2] = compound: CC1=C(C(=O)N2C=CSC2=N1)CCN3CCC(=C(C4=CC=CC=C4)C5=CC=C(C=C5)F)CC3 + C[C@@H](Oc1cc(-c2cnn(C3CCNCC3)c2)cnc1N)c1c(Cl)ccc(F)c1Cl [Crizotinib] (partner 1 µM)
Outline: as §1

[3] = compound: CC1=C(C(=O)N2C=CSC2=N1)CCN3CCC(=C(C4=CC=CC=C4)C5=CC=C(C=C5)F)CC3 + CS(=O)(=O)CCNCc1ccc(-c2ccc3ncnc(Nc4ccc(OCc5cccc(F)c5)c(Cl)c4)c3c2)o1 [Lapatinib] (partner 2 µM)
Outline: as §1

[4] = compound: CC1=C(C(=O)N2C=CSC2=N1)CCN3CCC(=C(C4=CC=CC=C4)C5=CC=C(C=C5)F)CC3 + Cc1nc(Nc2ncc(C(=O)Nc3c(C)cccc3Cl)s2)cc(N2CCN(CCO)CC2)n1 [Dasatinib] (partner 0.075 µM)
Outline: as §1

Cell Line | relative viability ([1]; first compound 0.08 µM) | relative viability ([1]; first compound 0.253 µM) | relative viability ([1]; first compound 0.8 µM) | relative viability ([1]; first compound 2.53 µM) | relative viability ([1]; first compound 8 µM) | relative viability ([2]; first compound 0.08 µM) | relative viability ([2]; first compound 0.253 µM) | relative viability ([2]; first compound 0.8 µM) | relative viability ([2]; first compound 2.53 µM) | relative viability ([2]; first compound 8 µM) | relative viability ([3]; first compound 0.08 µM) | relative viability ([3]; first compound 0.253 µM) | relative viability ([3]; first compound 0.8 µM) | relative viability ([3]; first compound 2.53 µM) | relative viability ([3]; first compound 8 µM) | relative viability ([4]; first compound 0.08 µM) | relative viability ([4]; first compound 0.253 µM) | relative viability ([4]; first compound 0.8 µM) | relative viability ([4]; first compound 2.53 µM) | relative viability ([4]; first compound 8 µM)
NCI-H322M | 0.686 | 0.622 | 0.555 | 0.706 | 0.683 | 0.732 | 0.948 | 0.878 | 0.696 | 0.834 | 0.581 | 0.613 | 0.612 | 0.554 | 0.611 | 0.267 | 0.238 | 0.246 | 0.254 | 0.27
EKVX | 0.366 | 0.382 | 0.436 | 0.432 | 0.35 | 0.863 | 1.15 | 1.01 | 0.894 | 0.703 | 0.173 | 0.227 | 0.194 | 0.19 | 0.231 | 0.359 | 0.631 | 0.519 | 0.434 | 0.549
HOP-62 | 0.335 | 0.315 | 0.306 | 0.336 | 0.12 | 1.01 | 0.939 | 0.744 | 0.701 | 0.442 | 0.785 | 1.03 | 1.2 | 0.862 | 0.482 | 0.595 | 0.482 | 0.621 | 0.575 | 0.548
PC-14 | 0.153 | 0.138 | 0.133 | 0.153 | 0.137 | 0.919 | 0.907 | 0.875 | 1.13 | 0.716 | 0.296 | 0.335 | 0.301 | 0.352 | 0.295 | 0.228 | 0.284 | 0.21 | 0.237 | 0.282
NCI-H2347 | 0.398 | 0.482 | 0.441 | 0.454 | 0.409 | 0.692 | 0.801 | 0.675 | 0.508 | 0.684 | 0.947 | 1.12 | 0.965 | 0.931 | 0.917 | 0.263 | 0.31 | 0.311 | 0.48 | 0.283
EMC-BAC-2 | 0.379 | 0.482 | 0.49 | 0.461 | 0.386 | 0.725 | 0.801 | 0.696 | 0.766 | 0.676 | 0.744 | 0.924 | 0.89 | 0.877 | 0.773 | 0.287 | 0.329 | 0.277 | 0.328 | 0.298
NCI-H1993 | 0.617 | 0.622 | 0.645 | 0.671 | 0.468 | 0.708 |  | 0.796 | 0.906 | 0.832 | 0.801 |  | 0.886 | 0.706 | 0.808 | 0.513 | 0.533 | 0.559 | 0.596 | 0.507
PC-3 [JPC-3] | 1.16 |  | 0.995 | 1.01 | 1.02 | 1.02 | 0.984 | 1.15 | 1.1 | 0.919 | 0.392 | 0.496 | 0.454 | 0.454 | 0.449 | 0.901 | 0.702 | 1.01 | 1.14 | 0.844
HARA | 0.253 | 0.252 | 0.253 | 0.252 | 0.228 | 1 | 1.21 | 1.25 | 1.04 | 0.791 | 1.01 | 1.06 | 0.873 | 0.82 | 0.625 | 0.243 | 0.23 | 0.265 | 0.229 | 0.136
NCI-H650 | 1.02 | 0.957 | 0.923 | 1.05 | 0.871 |  | 0.791 | 0.377 | 0.718 | 0.608 |  | 0.883 | 0.838 | 1.03 | 0.646 | 0.474 | 0.504 | 0.388 | 0.546 | 0.46
NCI-H2023 | 0.288 | 0.199 | 0.239 | 0.333 | 0.246 | 0.69 | 0.566 | 0.725 | 0.649 | 0.563 | 0.876 | 0.796 | 0.783 | 0.966 | 0.9 | 0.549 | 0.58 | 0.602 | 0.513 | 0.363
NCI-H2126 | 0.587 | 0.758 | 0.713 | 0.721 | 0.511 | 1.08 | 1.03 | 1.09 | 1.02 | 0.992 | 0.848 | 0.815 | 0.77 | 0.772 | 0.836 | 0.529 | 0.553 | 0.565 | 0.634 | 0.689
RERF-LC-KJ | 0.502 | 0.476 | 0.439 | 0.486 | 0.481 | 0.789 | 0.851 | 0.775 | 0.835 | 0.795 | 0.873 | 0.753 | 0.921 | 0.907 | 0.666 | 0.706 | 0.892 | 0.879 | 0.688 | 0.492
NCI-H1734 | 0.487 | 0.452 | 0.391 | 0.424 | 0.399 | 0.661 | 0.653 | 0.625 | 0.672 | 0.467 | 1.08 | 0.866 | 0.984 | 1.33 | 0.71 | 0.484 | 0.438 | 0.458 | 0.468 | 0.35
NCI-H1651 | 0.756 | 0.611 | 0.545 | 0.644 | 0.574 | 0.83 | 0.829 | 0.891 | 0.971 | 0.773 | 0.876 | 0.759 | 0.912 | 1.02 | 0.514 | 0.406 | 0.535 | 0.423 | 0.434 | 0.341
LC-2-ad | 0.247 | 0.268 | 0.277 | 0.271 | 0.281 | 0.46 | 0.342 | 0.415 | 0.522 | 0.475 | 1.01 | 1.08 | 0.88 | 1.2 | 0.861 | 0.766 | 0.538 | 0.422 | 0.644 | 0.497
